Results: PubChem BioAssay AID1259407 (Chemical Carcinogenesis Research Information System (CCRIS), 2018)
Activity calls are given as the source filed them. No rule for the calls is given here.

System: CCRIS mutagenicity, Ames/micronucleus/aberration tests
Assay: CCRIS mutagenicity studies
[1] = Test System: AMES SALMONELLA TYPHIMURIUM, Strain/Indicator: TA98, Metabolic Activation: NONE, Method: PREINCUBATION
[2] = Test System: AMES SALMONELLA TYPHIMURIUM, Strain/Indicator: TA98, Metabolic Activation: NONE, Method: STANDARD PLATE
[3] = Test System: AMES SALMONELLA TYPHIMURIUM, Strain/Indicator: TA100, Metabolic Activation: NONE, Method: PREINCUBATION
[4] = Test System: AMES SALMONELLA TYPHIMURIUM, Strain/Indicator: TA100, Metabolic Activation: NONE, Method: STANDARD PLATE
[5] = Test System: AMES SALMONELLA TYPHIMURIUM, Strain/Indicator: TA98, Metabolic Activation: RAT, LIVER, S-9, AROCLOR 1254, Method: PREINCUBATION
[6] = Test System: AMES SALMONELLA TYPHIMURIUM, Strain/Indicator: TA100, Metabolic Activation: RAT, LIVER, S-9, AROCLOR 1254, Method: PREINCUBATION

Compound: COc1ccc(C=O)cc1OC
- mutagenic call (Test System: AMES SALMONELLA TYPHIMURIUM, Strain/Indicator: TA98, Metabolic Activation: HAMSTER, LIVER, S-9, AROCLOR 1254 (10%), Method: PREINCUBATION): inactive; negative
- mutagenic call [1]: inactive; negative
- mutagenic call [2]: inactive; negative
- mutagenic call (Test System: AMES SALMONELLA TYPHIMURIUM, Strain/Indicator: TA98, Metabolic Activation: RAT, LIVER, S-9, AROCLOR 1254 (10%), Method: PREINCUBATION): inactive; negative
- mutagenic call (Test System: AMES SALMONELLA TYPHIMURIUM, Strain/Indicator: TA100, Metabolic Activation: HAMSTER, LIVER, S-9, AROCLOR 1254 (10%), Method: PREINCUBATION): inactive; negative
- mutagenic call [3]: inactive; negative
- mutagenic call [4]: inactive; negative
- mutagenic call (Test System: AMES SALMONELLA TYPHIMURIUM, Strain/Indicator: TA100, Metabolic Activation: RAT LIVER S-9, AROCLOR 1254, Method: PREINCUBATION): inactive; negative
- mutagenic call (Test System: AMES SALMONELLA TYPHIMURIUM, Strain/Indicator: TA100, Metabolic Activation: RAT, LIVER, S-9, AROCLOR 1254 (10%), Method: PREINCUBATION): inactive; negative
- mutagenic call (Test System: AMES SALMONELLA TYPHIMURIUM, Strain/Indicator: TA102, Metabolic Activation: NONE, Method: PREINCUBATION): inactive; negative
- mutagenic call (Test System: AMES SALMONELLA TYPHIMURIUM, Strain/Indicator: TA102, Metabolic Activation: RAT LIVER S-9, AROCLOR 1254, Method: PREINCUBATION): inactive; negative
- mutagenic call (Test System: AMES SALMONELLA TYPHIMURIUM, Strain/Indicator: TA104, Metabolic Activation: NONE, Method: PREINCUBATION): inactive; negative
- mutagenic call (Test System: AMES SALMONELLA TYPHIMURIUM, Strain/Indicator: TA104, Metabolic Activation: RAT LIVER S-9, AROCLOR 1254, Method: PREINCUBATION): inactive; negative
- mutagenic call (Test System: AMES SALMONELLA TYPHIMURIUM, Strain/Indicator: TA1535, Metabolic Activation: HAMSTER, LIVER, S-9, AROCLOR 1254 (10%), Method: PREINCUBATION): inactive; negative
- mutagenic call (Test System: AMES SALMONELLA TYPHIMURIUM, Strain/Indicator: TA1535, Metabolic Activation: NONE, Method: PREINCUBATION): inactive; negative
- mutagenic call (Test System: AMES SALMONELLA TYPHIMURIUM, Strain/Indicator: TA1535, Metabolic Activation: RAT, LIVER, S-9, AROCLOR 1254 (10%), Method: PREINCUBATION): inactive; negative
- mutagenic call (Test System: AMES SALMONELLA TYPHIMURIUM, Strain/Indicator: TA1537, Metabolic Activation: HAMSTER, LIVER, S-9, AROCLOR 1254 (10%), Method: PREINCUBATION): inactive; negative
- mutagenic call (Test System: AMES SALMONELLA TYPHIMURIUM, Strain/Indicator: TA1537, Metabolic Activation: NONE, Method: PREINCUBATION): inactive; negative
- mutagenic call (Test System: AMES SALMONELLA TYPHIMURIUM, Strain/Indicator: TA1537, Metabolic Activation: RAT, LIVER, S-9, AROCLOR 1254 (10%), Method: PREINCUBATION): inactive; negative
- mutagenic call (Test System: E. COLI, Strain/Indicator: CM561 LEXA, Metabolic Activation: NONE, Method: STANDARD PLATE): inactive; negative
- mutagenic call (Test System: E. COLI, Strain/Indicator: CM611 UVRA/LEXA, Metabolic Activation: NONE, Method: STANDARD PLATE): inactive; negative
- mutagenic call (Test System: E. COLI, Strain/Indicator: WP2 UVRA, Metabolic Activation: NONE, Method: STANDARD PLATE): inactive; negative

Compound: CCN(CC)CC(=O)Nc1c(C(=O)c2ccccc2F)c(C)nn1C
- mutagenic call [5]: active; positive
- mutagenic call (Test System: AMES SALMONELLA TYPHIMURIUM, Strain/Indicator: TA98, Metabolic Activation: RAT, LIVER, S-9, AROCLOR 1254, Method: STANDARD PLATE): inactive; negative
- mutagenic call [6]: active; positive
- mutagenic call (Test System: AMES SALMONELLA TYPHIMURIUM, Strain/Indicator: TA100, Metabolic Activation: RAT, LIVER, S-9, AROCLOR 1254, Method: STANDARD PLATE): inactive; negative

Compound: Cc1ccc([N+](=O)[O-])c(C)c1[N+](=O)[O-]
- mutagenic call [1]: inactive; negative
- mutagenic call (Test System: AMES SALMONELLA TYPHIMURIUM, Strain/Indicator: TA98, Metabolic Activation: RAT, LIVER, S-9, KANECHLOR 500, Method: PREINCUBATION): inactive; negative
- mutagenic call (Test System: AMES SALMONELLA TYPHIMURIUM, Strain/Indicator: TA100, Metabolic Activation: RAT, LIVER, S-9, KANECHLOR 500, Method: PREINCUBATION): active; positive

Compound: CC(=O)Oc1cc([N+](=O)[O-])c2ccc3cccc4ccc1c2c43
- mutagenic call (Test System: AMES SALMONELLA TYPHIMURIUM, Strain/Indicator: TA98(1,8-DNP6), Metabolic Activation: NONE, Method: PREINCUBATION): active; positive
- mutagenic call (Test System: AMES SALMONELLA TYPHIMURIUM, Strain/Indicator: TA98(NR), Metabolic Activation: NONE, Method: PREINCUBATION): active; positive
- mutagenic call [1]: active; positive
- mutagenic call [5]: inactive; negative
- mutagenic call [3]: active; positive
- mutagenic call [6]: active; positive

Compound: Cc1ccc(S(=O)(=O)OC[C@H]2CO2)cc1
- mutagenic call [3]: active; positive
- mutagenic call [4]: active; positive
- mutagenic call (Test System: AMES SALMONELLA TYPHIMURIUM, Strain/Indicator: TA100, Metabolic Activation: RAT, LIVER, S-9, PCB, Method: PREINCUBATION): active; positive

Compound: O=[N+]([O-])c1ccc2c(ccc3cc4c(ccc5ccccc54)cc32)c1
- mutagenic call (Test System: AMES SALMONELLA TYPHIMURIUM, Strain/Indicator: TA98(1,8-DNP6), Metabolic Activation: NONE): active; positive
- mutagenic call (Test System: AMES SALMONELLA TYPHIMURIUM, Strain/Indicator: TA98(1,8-DNP6), Metabolic Activation: RAT, LIVER, S-9, AROCLOR 1254): active; positive
- mutagenic call (Test System: AMES SALMONELLA TYPHIMURIUM, Strain/Indicator: TA98(NR), Metabolic Activation: NONE): active; positive
- mutagenic call (Test System: AMES SALMONELLA TYPHIMURIUM, Strain/Indicator: TA98(NR), Metabolic Activation: RAT, LIVER, S-9, AROCLOR 1254): active; positive
- mutagenic call (Test System: AMES SALMONELLA TYPHIMURIUM, Strain/Indicator: TA98, Metabolic Activation: NONE): active; positive
- mutagenic call (Test System: AMES SALMONELLA TYPHIMURIUM, Strain/Indicator: TA98, Metabolic Activation: RAT, LIVER, S-9, AROCLOR 1254): active; positive
- mutagenic call (Test System: AMES SALMONELLA TYPHIMURIUM, Strain/Indicator: TA100(NR), Metabolic Activation: NONE): inactive; negative
- mutagenic call (Test System: AMES SALMONELLA TYPHIMURIUM, Strain/Indicator: TA100(NR), Metabolic Activation: RAT, LIVER, S-9, AROCLOR 1254): active; positive
- mutagenic call (Test System: AMES SALMONELLA TYPHIMURIUM, Strain/Indicator: TA100, Metabolic Activation: NONE): inactive; negative
- mutagenic call (Test System: AMES SALMONELLA TYPHIMURIUM, Strain/Indicator: TA100, Metabolic Activation: RAT, LIVER, S-9, AROCLOR 1254): active; positive
- mutagenic call (Test System: AMES SALMONELLA TYPHIMURIUM, Strain/Indicator: TA104, Metabolic Activation: NONE): inactive; negative
- mutagenic call (Test System: AMES SALMONELLA TYPHIMURIUM, Strain/Indicator: TA104, Metabolic Activation: RAT, LIVER, S-9, AROCLOR 1254): active; positive

Compound: COC(=O)C1=CCCN(N=O)C1
- mutagenic call [2]: active; positive
- mutagenic call (Test System: AMES SALMONELLA TYPHIMURIUM, Strain/Indicator: TA98, Metabolic Activation: RAT, LIVER, S-9, Method: STANDARD PLATE): active; positive
- mutagenic call [4]: active; positive
- mutagenic call (Test System: AMES SALMONELLA TYPHIMURIUM, Strain/Indicator: TA100, Metabolic Activation: RAT, LIVER, S-9, Method: STANDARD PLATE): active; positive

Compound: C[C@H](CCC(=O)NCC(=O)O)[C@H]1CC[C@H]2[C@@H]3[C@@H](O)C[C@@H]4C[C@H](O)CC[C@]4(C)[C@H]3CC[C@]12C
- mutagenic call (Test System: Ames Salmonella typhimurium, Strain/Indicator: TA98, Metabolic Activation: Rat, Liver, S-9, Aroclor 1254, Method: Plate incorporation): inactive; negative
